In paper PMC10700673, “A Smart Intracellular Self‐Assembling Bioorthogonal Raman Active Nanoprobe for Targeted Tumor Imaging” (Advanced Science, 2023):

Experiment: in vivo toxicity and biocompatibility
Design: species or system healthy female rag2 mice
Conditions: 7 days after IV 100 µL, 0.0125 mmol kg-1, n = 3
From the text: The in vivo toxicity and biocompatibility of nanoSABER were investigated following IV injection of nanoSABER in mice (Figure 7a). […] In addition, we examined various common indicators related to renal function (Figure 7c), liver function (Figure 7d), and bone marrow function (Figure 7e). […] These findings further confirm the biocompatibility and safety of the nanoSABER for in vivo targeted tumor imaging.
Figure 7 a) Schematic illustration of in vivo toxicity and biocompatibility assessment 7 days after IV injection of nanoSABER. b) Histology of major organs excised and stained with H&E for PBS (control) or nanoSABER injection. c) Kidney function test for blood plasma and urine. d) Liver function test for the enzymes aspartate transaminase (AST), alkaline phosphatase (ALP), and alanine transaminase (ALT) in blood plasma. e) Bone marrow function test for red blood cells (RBCs), white blood cells (WBCs), and platelets in blood plasma. All data are presented as mean ± standard deviation, n = 3. p‐Values of <0.001 (***), 0.001 to 0.01 (**), and 0.01 to 0.05 (*) were considered significant.
All animal experiments were carried out under an approved IACUC protocol. The biocompatibility of nanoSABER was evaluated in vivo, using healthy female rag2 mice that were divided into two groups (n = 3 each). […]

Substance: Ac‐Arg‐Arg‐Arg‐Arg‐Arg‐Arg‐Ala‐Ala‐Asn‐Cys(StBu)‐Pra‐Lys‐CBT [nanoSABER]
- renal, liver and bone marrow function parameters (compared with PBS group): fell within a normal reference range
- H&E histology of major organs (heart, liver, lung, kidney, spleen): no signs of histopathological damage or tissue inflammation
